# In patent US10370425B2, “Peptide antagonists of the calcitonin CGRP family of peptide hormones and their use” (priority 2012, dated 2019):
# Like-named read-outs stand apart in the source and are kept apart here. Positions of bridges follow the written chain, without caps; N, C: chain ends. Residues, ends and D or L forms follow the SMILES beside them. No end group written: not given here.
# Target: T1, amylin receptor, AMY1, a CT (calcitonin) receptor/RAMP1 (receptor-activity modifying protein) complex (Homo sapiens, UniProt O60894+P30988)
# T1 construct: host or cells: CHO-K1/AMY1/Gα15
# T1 sequence (P30988 25-474): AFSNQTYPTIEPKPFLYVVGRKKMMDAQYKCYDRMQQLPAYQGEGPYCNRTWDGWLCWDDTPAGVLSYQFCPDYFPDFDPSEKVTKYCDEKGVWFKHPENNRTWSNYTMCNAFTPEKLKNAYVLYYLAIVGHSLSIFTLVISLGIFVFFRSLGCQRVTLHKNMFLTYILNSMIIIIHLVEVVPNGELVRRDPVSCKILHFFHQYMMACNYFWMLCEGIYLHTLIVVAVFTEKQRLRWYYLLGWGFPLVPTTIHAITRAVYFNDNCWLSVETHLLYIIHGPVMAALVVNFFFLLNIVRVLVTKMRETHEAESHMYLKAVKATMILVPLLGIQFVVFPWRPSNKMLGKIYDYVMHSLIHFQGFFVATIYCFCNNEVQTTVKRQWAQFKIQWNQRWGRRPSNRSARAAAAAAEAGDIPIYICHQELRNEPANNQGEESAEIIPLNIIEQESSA
# T1 sequence (O60894 27-148): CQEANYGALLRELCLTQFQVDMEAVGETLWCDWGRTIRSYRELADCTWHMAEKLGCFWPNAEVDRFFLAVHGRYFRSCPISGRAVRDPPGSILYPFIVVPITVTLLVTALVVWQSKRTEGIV
# Test: Calcium flux assay (FLIPR Calcium 4) of inhibition of α-CGRP stimulation in CHO-K1/AMY1/Gα15 cells
# Format: cell-based
# Settings: for inhibition at 1 µM: at maximal test concentration (series starts with 1 μM), CHO-K1/AMY1/Gα15 cells stimulated with 32 nM (EC80) α-CGRP, n = 2, read-out: % Inhibition @ Maximal concentration (Mean +/− SD, n = 2)
# Method: Using a calcium flux assay, the dose-dependent inhibitory response of peptide antagonists of the present invention on an amylin receptor, AMY1, a CT (calcitonin) receptor/RAMP1 (receptor-activity modifying protein) complex was determined. The recombinant cell line CHO-K1/AMY1/Gα15 (GenScript, Piscataway, N.J., Catalog No. M00475) was employed in the assay. Peptide antagonist activities were tested, in duplicate, at five different concentrations, starting with 1 μM and serially diluted five-fold, in DMSO. AC187 (SEQ ID NO: 55), a known amylin receptor antagonist (available for example from Tocris Bioscience, Minneapolis, Minn., Catalog No. 3419) was used as a positive control in the assays, and human α-CGRP, a known amylin receptor agonist (SEQ ID NO:56) , (available for example from Tocris Bioscience, Minneapolis, Minn., Catalog No. 3012) was used as a positive control in the assays. The FLIPR® Calcium 4 Assay Kit (Molecular Devices, Sunnyvale, Calif.) was used.
# Human α-CGRP having the amino acid sequence, NH2-[…]-NH2 (SEQ ID NO:56) and AC187 having the sequence […] (SEQ ID NO: 55) were employed as negative and positive controls, respectively. Stock solutions were further diluted in HBSS-HEPES buffer to make 5×final control solutions.
# CHO-K1/AMY1/Gα15 cells were seeded in a 384-well black wall, clear bottom plate at a density of 20,000 cells/well in 20 μL of growth medium 20 hours prior to the day of the experiment and maintained at 37° C./5% CO2.
# Per the assay kit protocol, dye-loading solution (at 2×final concentration) was added into the assay plate, 20 μL per well. Compound solution (at 5 ×final concentration) was added into the assay plate, 10 uL per well. The assay plate was placed into a 37° C. incubator for 1 hour, then left for 15 min at RT. The agonist plate (at 5×EC80 concentration) was placed in Source 2. The total reading time was 120 sec. The agonist was added after 20 seconds reading of the baseline and the fluorescence signal was captured for another 100 seconds (21 s to 120 s).
# In screening, cells stimulated with assay buffer were chosen as the background; cells stimulated with agonist (at […] concentration) were chosen as the negative control.
# Data were recorded by ScreenWorks (version 3.1) as FMD files and stored on the GenScript computer network for off-line analysis. Data acquisition and analyses was performed using ScreenWorks (version 3.1) program and exported to Excel. The average value of 20 (1 s to 20 s) seconds reading was calculated as the baseline reading and the relative fluorescent units (ΔRFU) intensity values were calculated with the maximal fluorescent units (21 s to 120 s) subtracting the average value of baseline reading.
# The IC50 value of AC187 was 8 μM. The inhibitory activity of the tested peptide antagonists was normalized with the negative control (AC187) and reported as % Inhibition, calculated from the following equation: % Inhibition=(ΔRFUcompound−ΔRFUBackground)/(ΔRFUNegative control−ΔRFUBackground) * 100% Inhibition was then plotted along the Y-axis, with the test concentrations as indicated on the X-axis. The peptides were tested at indicated concentrations and stimulated with 32 nM (EC80) α-CGRP (Mean +/− SD, n=2).
Compound,inhibition at 1 µM,"IC50 (CHO-K1/AMY1/Gα15 calcium flux, read-out: IC50 value)","IC50 (positive control, CHO-K1/AMY1/Gα15 cells stimulated with α-CGRP, read-out: IC50 nM (assay positive control))"
CC(C)C[C@H](NC(=O)[C@H](CCCNC(=N)N)NC(=O)CNC(=O)[C@H](CC(C)C)NC(=O)[C@@H](NC(=O)[C@@H]1CSSC[C@H](NC(=O)[C@H](C)N)C(=O)N[C@@H](CC(N)=O)C(=O)N[C@@H](CC(C)C)C(=O)N[C@@H](CO)C(=O)N[C@@H](C)C(=O)N1)C(C)C)C(=O)N[C@@H](CO)C(=O)N[C@@H](CCC(N)=O)C(=O)N[C@@H](CCC(=O)O)C(=O)N[C@@H](CC(C)C)C(=O)N[C@@H](Cc1c[nH]cn1)C(=O)N[C@@H](CCCNC(=N)N)C(=O)N[C@@H](CC(C)C)C(=O)N[C@@H](CCC(N)=O)C(=O)N[C@H](C(=O)N[C@@H](Cc1ccc(O)cc1)C(=O)N1CCC[C@H]1C(=O)N[C@@H](CCCNC(=N)N)C(=O)N[C@H](C(=O)N[C@@H](CC(N)=O)C(=O)N[C@H](C(=O)NCC(=O)N[C@@H](CO)C(=O)N[C@@H](CCCCN)C(=O)N[C@@H](C)C(=O)N[C@@H](Cc1ccccc1)C(N)=O)C(C)C)[C@@H](C)O)[C@@H](C)O [compound 7] (H-ACNLSACVLGRLSQELHRLQTYPRTNVGSKAF-NH2; disulfide 2-7 (inferred)),96%,–,–
CC(C)C[C@H](NC(=O)CNC(=O)[C@H](C)NC(=O)[C@H](CC(C)C)NC(=O)[C@H](CCCNC(=N)N)NC(=O)[C@H](Cc1c[nH]cn1)NC(=O)[C@@H](NC(=O)[C@@H](NC(=O)[C@@H]1CSSC[C@H](NC(=O)[C@H](C)N)C(=O)N[C@@H](CC(=O)O)C(=O)N[C@@H]([C@@H](C)O)C(=O)N[C@@H](C)C(=O)N[C@@H](C)C(=O)N1)C(C)C)[C@@H](C)O)C(=O)N[C@@H](CC(C)C)C(=O)N[C@@H](CO)C(=O)N[C@@H](CCCNC(=N)N)C(=O)N[C@@H](CO)C(=O)NCC(=O)NCC(=O)N[C@H](C(=O)N[C@H](C(=O)N[C@@H](CCCCN)C(=O)N[C@@H](CC(N)=O)C(=O)N[C@@H](CC(N)=O)C(=O)N[C@@H](Cc1ccccc1)C(=O)N[C@H](C(=O)N1CCC[C@H]1C(=O)N[C@H](C(=O)N[C@@H](CC(N)=O)C(=O)N[C@H](C(=O)NCC(=O)N[C@@H](CO)C(=O)N[C@@H](CCCCN)C(=O)N[C@@H](C)C(=O)N[C@@H](Cc1ccccc1)C(N)=O)C(C)C)[C@@H](C)O)C(C)C)C(C)C)C(C)C [compound 15],23.3%,–,–
CC(C)C[C@H](NC(=O)[C@H](CCCNC(=N)N)NC(=O)CNC(=O)[C@H](CC(C)C)NC(=O)[C@@H](NC(=O)[C@@H]1CSSC[C@H](NC(=O)[C@H](C)N)C(=O)N[C@@H](C(C)C)C(=O)N[C@@H](CC(C)C)C(=O)NCC(=O)N[C@@H](C)C(=O)N1)C(C)C)C(=O)N[C@@H](CO)C(=O)N[C@@H](CCC(N)=O)C(=O)N[C@@H](CCC(=O)O)C(=O)N[C@@H](CC(C)C)C(=O)N[C@@H](Cc1c[nH]cn1)C(=O)N[C@@H](CCCNC(=N)N)C(=O)N[C@@H](CC(C)C)C(=O)N[C@@H](CCC(N)=O)C(=O)N[C@H](C(=O)N[C@@H](Cc1ccc(O)cc1)C(=O)N1CCC[C@H]1C(=O)N[C@H](C(=O)N[C@@H](CC(=O)O)C(=O)N1CCC[C@H]1C(=O)N[C@@H](CO)C(=O)N[C@@H](CO)C(=O)N1CCC[C@H]1C(=O)N[C@@H](Cc1c[nH]cn1)C(=O)N[C@@H](CO)C(=O)N[C@@H](Cc1ccc(O)cc1)C(N)=O)C(C)C)[C@@H](C)O [compound 14] (H-ACVLGACVLGRLSQELHRLQTYPVDPSSPHSY-NH2; disulfide 2-7 (inferred)),51.9%,–,–
CC(C)C[C@H](NC(=O)[C@H](CCCNC(=N)N)NC(=O)CNC(=O)[C@H](CC(C)C)NC(=O)[C@@H](NC(=O)[C@@H]1CSSC[C@H](NC(=O)[C@H](C)N)C(=O)N[C@@H](CC(=O)O)C(=O)N[C@@H]([C@@H](C)O)C(=O)N[C@@H](C)C(=O)N[C@@H](C)C(=O)N1)C(C)C)C(=O)N[C@@H](CO)C(=O)N[C@@H](CCC(N)=O)C(=O)N[C@@H](CCC(=O)O)C(=O)N[C@@H](CC(C)C)C(=O)N[C@@H](Cc1c[nH]cn1)C(=O)N[C@@H](CCCNC(=N)N)C(=O)N[C@@H](CC(C)C)C(=O)N[C@@H](CCC(N)=O)C(=O)N[C@H](C(=O)N[C@@H](Cc1ccc(O)cc1)C(=O)N1CCC[C@H]1C(=O)N[C@@H](CCCNC(=N)N)C(=O)N[C@H](C(=O)N[C@@H](CC(N)=O)C(=O)N[C@H](C(=O)NCC(=O)N[C@@H](CO)C(=O)N[C@@H](CCCCN)C(=O)N[C@@H](C)C(=O)N[C@@H](Cc1ccccc1)C(N)=O)C(C)C)[C@@H](C)O)[C@@H](C)O [compound 1] (H-ACDTAACVLGRLSQELHRLQTYPRTNVGSKAF-NH2; disulfide 2-7 (inferred)),94.4%,–,–
CC(C)C[C@@H]1NC(=O)[C@H](C)NC(=O)[C@H]([C@@H](C)O)NC(=O)[C@H](CC(=O)O)NC(=O)[C@@H](NC(=O)[C@H](C)N)CSSC[C@@H](C(=O)N[C@H](C(=O)N[C@@H](CC(C)C)C(=O)NCC(=O)N[C@@H](CCCNC(=N)N)C(=O)N[C@@H](CC(C)C)C(=O)N[C@@H](CO)C(=O)N[C@@H](CCC(N)=O)C(=O)N[C@@H](CCC(=O)O)C(=O)N[C@@H](CC(C)C)C(=O)N[C@@H](Cc2c[nH]cn2)C(=O)N[C@@H](CCCNC(=N)N)C(=O)N[C@@H](CC(C)C)C(=O)N[C@@H](CCC(N)=O)C(=O)N[C@H](C(=O)N[C@@H](Cc2ccc(O)cc2)C(=O)N2CCC[C@H]2C(=O)N[C@@H](CCCNC(=N)N)C(=O)N[C@H](C(=O)N[C@@H](CC(N)=O)C(=O)N[C@H](C(=O)NCC(=O)N[C@@H](CO)C(=O)N[C@@H](CCCCN)C(=O)N[C@@H](C)C(=O)N[C@@H](Cc2ccccc2)C(N)=O)C(C)C)[C@@H](C)O)[C@@H](C)O)C(C)C)NC1=O [compound 9] (H-ACDTALCVLGRLSQELHRLQTYPRTNVGSKAF-NH2; disulfide 2-7 (inferred)),95.6%,–,–
"VLGKLSQELHKLQTYPRTNTGSNTY [AC187, reference compound]",–,8000 nM,8150 nM
CC[C@H](C)[C@@H]1NC(=O)[C@H](C)NC(=O)[C@H]([C@@H](C)O)NC(=O)[C@H](CC(=O)O)NC(=O)[C@@H](NC(=O)[C@H](C)N)CSSC[C@@H](C(=O)N[C@H](C(=O)N[C@@H](CC(C)C)C(=O)NCC(=O)N[C@@H](CCCNC(=N)N)C(=O)N[C@@H](CC(C)C)C(=O)N[C@@H](CO)C(=O)N[C@@H](CCC(N)=O)C(=O)N[C@@H](CCC(=O)O)C(=O)N[C@@H](CC(C)C)C(=O)N[C@@H](Cc2c[nH]cn2)C(=O)N[C@@H](CCCNC(=N)N)C(=O)N[C@@H](CC(C)C)C(=O)N[C@@H](CCC(N)=O)C(=O)N[C@H](C(=O)N[C@@H](Cc2ccc(O)cc2)C(=O)N2CCC[C@H]2C(=O)N[C@@H](CCCNC(=N)N)C(=O)N[C@H](C(=O)N[C@@H](CC(N)=O)C(=O)N[C@H](C(=O)NCC(=O)N[C@@H](CO)C(=O)N[C@@H](CCCCN)C(=O)N[C@@H](C)C(=O)N[C@@H](Cc2ccccc2)C(N)=O)C(C)C)[C@@H](C)O)[C@@H](C)O)C(C)C)NC1=O [compound 10] (H-ACDTAICVLGRLSQELHRLQTYPRTNVGSKAF-NH2; disulfide 2-7 (inferred)),96.8%,–,–
CC(C)C[C@H](NC(=O)[C@H](CCCNC(=N)N)NC(=O)CNC(=O)[C@H](CC(C)C)NC(=O)[C@@H](NC(=O)[C@@H]1CSSC[C@H](NC(=O)[C@H](C)N)C(=O)N[C@@H](CCCNC(=N)N)C(=O)N[C@@H](Cc2ccccc2)C(=O)NCC(=O)N[C@@H](C)C(=O)N1)C(C)C)C(=O)N[C@@H](CO)C(=O)N[C@@H](CCC(N)=O)C(=O)N[C@@H](CCC(=O)O)C(=O)N[C@@H](CC(C)C)C(=O)N[C@@H](Cc1c[nH]cn1)C(=O)N[C@@H](CCCNC(=N)N)C(=O)N[C@@H](CC(C)C)C(=O)N[C@@H](CCC(N)=O)C(=O)N[C@H](C(=O)N[C@@H](Cc1ccc(O)cc1)C(=O)N1CCC[C@H]1C(=O)N[C@@H](CCCNC(=N)N)C(=O)N[C@H](C(=O)N[C@@H](CC(N)=O)C(=O)N[C@H](C(=O)NCC(=O)N[C@@H](CO)C(=O)N[C@@H](CCCCN)C(=O)N[C@@H](C)C(=O)N[C@@H](Cc1ccccc1)C(N)=O)C(C)C)[C@@H](C)O)[C@@H](C)O [compound 6] (H-ACRFGACVLGRLSQELHRLQTYPRTNVGSKAF-NH2; disulfide 2-7 (inferred)),93.9%,–,–
